Measurements taken from patent US10526322B2, “Inhibitors of kidney-type glutaminase, GLS-1” (CORNELL UNIVERSITY, priority 2014, dated 2020).

Molecular target: T1, monomeric GAC (D391K, K316E, R459E) (Mus musculus, UniProt D3Z7P3, D391K/K316E/R459E)
T1 construct: (residues 72-603) was cloned into a pET23a vector; His-tag with thrombin cleavage site (N); made in house
T1 sequence (D3Z7P3 72-603 isoform D3Z7P3-2 K316E/D391K/R459E): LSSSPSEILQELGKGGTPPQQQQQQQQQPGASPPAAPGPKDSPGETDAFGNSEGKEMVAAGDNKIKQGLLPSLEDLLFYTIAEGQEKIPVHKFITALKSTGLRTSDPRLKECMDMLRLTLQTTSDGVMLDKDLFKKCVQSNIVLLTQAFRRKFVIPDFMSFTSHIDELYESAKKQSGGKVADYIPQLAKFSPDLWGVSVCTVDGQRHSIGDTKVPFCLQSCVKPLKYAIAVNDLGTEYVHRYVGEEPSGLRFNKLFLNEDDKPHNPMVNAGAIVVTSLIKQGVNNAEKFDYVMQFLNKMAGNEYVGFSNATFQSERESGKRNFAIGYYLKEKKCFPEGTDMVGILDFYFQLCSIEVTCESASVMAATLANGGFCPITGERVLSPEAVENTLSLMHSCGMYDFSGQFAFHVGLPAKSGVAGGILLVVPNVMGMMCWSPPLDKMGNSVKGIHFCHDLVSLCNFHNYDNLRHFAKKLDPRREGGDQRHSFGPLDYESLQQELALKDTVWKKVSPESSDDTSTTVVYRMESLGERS
Assay: 968 binding to GAC mutants, quenching of 488 fluorescence
Details: 10 nM total monomer
Description: Real-time fluorescence monitoring of 968 binding and GAC activity through production of NADH was performed on a Varian Cary Eclipse Fluorometer, whereas small molecule inhibition and binding titrations were performed in a 96-well format in a Tecan Saphire absorbance and fluorescence plate reader. Samples for monitoring real-time binding of 968 to 488-GAC were prepared by adding 10 μL of varying concentrations of 968 prepared in DMSO to an equilibrated 1 mL sample of 10 nM 488-GAC, while observing 488 fluorescence (490 nm excitation/520 nm emission). […] WT GAC (10 nM) was added and allowed to equilibrate 2 minutes before monitoring the fluorescence emission of 488-GAC (490 nm excitation, 520 nm emission) and NADH (340 nm excitation, 490 nm emission). […] The activity of GAC was measured in a coupled assay, by monitoring the NADH produced by glutamate dehydrogenase, which converts the product of the glutaminase-catalyzed reaction, glutamate, to α-ketoglutarate and ammonia by reducing NAD+ to NADH. Because solutions containing glutamine undergo non-enzymatic degradation to glutamate, samples were further analyzed by […] under identical experimental conditions. […]

affinity for 968 compared with WT 488-GAC and dimeric GAC (D391K): highest affinity
SMILES: CN(C)c1ccc(C2Nc3ccc4ccccc4c3C3=C2C(=O)CC(C)(C)C3)cc1Br (stereo not shown) [Compound 968]
